The source of these data is patent publication US5612314A, “Nitrosylated neuropeptides” (Brigham & Women's Hospital, priority 1995, dated 1997).

SMILES strings stand for the structures. Where two headings read alike, the source gives them in different places.

Data set [1] concerns rat gastric fundus strips. Nature of the data set: Contraction of rat gastric fundus strips. Type of data set: cell-based. The conditions noted are these: for relative potency of inhibition of contraction amplitude: 5HT (10 μM) present, FIG. 8. As to the method:
Male and female Sprague-Dawley rats weighing 200-300 g were anesthetized with 40 mg/kg sodium pentobarbital given intraperitoneally. After deep anesthesia was obtained, exsanguination was accomplished by severing both the jugular vein and common carotid artery. The abdomen was opened at the midline and the stomach was removed, and transferred to the ice cold oxygenated Krebs' solution at pH 7.4. The stomach was dissected out and the pink pyloric end cut away from the grey fundal end. The fundal end was split open so as to form a sheet, the contents were washed away. Longitudinal muscle strips (3×20 mm) of the gastric fundus were prepared as described by Vane (Vane, Br. J. Pharmac. Chemother., 12:344, 1957). The strips were mounted under a 1-g resting tension between two parallel platinum electrodes placed inside the organ baths containing 20-ml of the gassed Krebs' solution. The Krebs' solution also contained atropine (1 μM) and guanethidine (4 μM) to block cholinergic and adrenergic involvement in response to field stimulation of intramural nerves and 5-hydroxytryptamine (5-HT, 5-10 μM) to raise the tone of the smooth muscle. In some experiments, indomethacin (10 μM) was present in Krebs' to avoid the influence of endogenous prostaglandins. Tissues were allowed to equilibrate for 1 h with changes of Krebs' solution every 10 minutes.
After the equilibration period, relaxations of smooth muscle were elicited by VIP, VIPGC, VIPGC-NO, isoproterenol and GSNO. In some experiments, the strips were incubated for 10 minutes with N^G -monomethyl L-arginine (L-NMMA).

A further data set relates to rabbit sphincter of Oddi. Description: Contractility of isolated rabbit sphincter of Oddi. Type of data set: cell-based. The settings on record: for effect on ACh-induced contractions: ACh-pretreated (10 μM), cumulative addition, peptides 1 nM-1 μM, GSNO 0.1-100 μM; for inhibition at 100 µM: Oryctolagus cuniculus.
A further data set concerns rabbit aortic rings. Nature of the data set: Relaxation of precontracted rabbit aortic rings (isometric tension). The conditions noted are these: for relaxation of aortic rings, cumulative additions: intact rings precontracted with phenylephrine (100 μM), 10 nM to 1 μM, FIG. 2. Type of data set: cell-based.
The test system of data set [2] is cGMP and cAMP content of rabbit aortic rings. Description: Cyclic GMP and cyclic AMP content of rabbit aortic rings (enzyme-immunoassay). Format: cell-based. The conditions noted are these: 1 μM, FIG. 9; for cGMP content of aortic rings: at maximum relaxation.
Experimental: (§3) Frozen tissues were homogenized in ice-cold 6% trichloroacetic acid to give approximately a 10% (w/v) homogenate. The homogenates were centrifuged at 2,000 g for 15 minutes at 4° C. The supernatant fractions were decanted off the pellets and washed four times with 5 volumes of water-saturated ethyl ether, and the aqueous extracts remaining were saved for assay for cyclic GMP and AMP using enzyme-immunoassay kits (Amersham Life Science Inc., Arlington Heights, IL).
Data set [3] deals with cGMP and cAMP content of guinea pig tracheal rings. Nature of the data set: Cyclic GMP and cyclic AMP content of guinea pig tracheal rings (enzyme-immunoassay). Format: cell-based. The settings on record: 100 nM, n=4, FIG. 10; for cGMP content of tracheal rings: at plateau of relaxation.
Experimental: as §3
Another data set deals with corpora cavernosa. Description: Erectile response (intracavernosal pressure) in vivo in the anesthetized dog. As to the method: (§1) Male mongrel dogs (20-30 kg) were used as the animal model. Under pentobarbital anesthesia (30 mg/kg) and mechanical respiration, a 20 gauge anglocatheter was placed into the carotid artery for measurement of systemic blood pressure. A ventral incision was made in the penis and the corpora cavernosa were exposed.
(§2) A 19 gauge minicatheter was inserted deep into the cavernosal tissue, on each corpus, for pressure measurement and delivery of either VIP, VIP-Gly-Cys-NO, VIP-Gly-Cys-NH2 or papaverine. […] Drugs were delivered intracavernosally in solution, 0.5 ml volume, at variable syringe concentrations, starting at 10^-7 M and progressively increasing the dose up to, in some instances, 10^-4 M. In most experiments, at the end, papaverine 80 mM was administered intracavernosally in order to compare this response to those elicited by VIP or its analogs. At all times systemic blood pressure was monitored, for comparison with intracavernosal pressure.

Data set [4] concerns guinea-pig trachea. The settings on record: for time for relaxation to reach a plateau: 100 nM; for effect of pretreatment with 100 nM propanol on the induced relaxation: cumulative additions, dose range 10-320 nM; for IC50: read-out: IC50 of relaxation of tracheal rings, precontracted with 10 μM methacholine, FIG. 4.
Experimental: (§4) Male Hartley guinea pigs (300-400 g) were anesthetized by use of intraperitoneal injection of pentobarbital sodium (40 mg/kg) to achieve a deep plane of anesthesia. The tracheas were dissected out, transferred to cold Krebs' solution. Tracheas were then dissected free from surrounding fat and connective tissue and cut transversely between the segments of cartilage, so as to give tracheal rings about 2 mm thick. The rings were suspended between stainless-steel hooks in the 20 ml organ baths containing the above-mentioned Krebs' solution at 37° C. The hooks were connected to the FT03C transducers. Rings were equilibrated at a basal tension of 1 g as described above and then primed twice with methacholine (100 nM). The rings were rinsed throughout after each priming exposure. Tracheal rings were not used if they could not sustain at least 1 g tension when exposed to 100 nM methacholine. The surface of organ baths was treated with 1N HCl to minimize contamination and allowed to dry in room air before Krebs' solution were added. For relaxation studies, methacholine (100 nM) was used to contract the tracheal rings and results are expressed in percentage of relaxation of methacholine-induced tone.
For data set [5] the following is noted: dog, in vivo. As to the method:
as §1, §2

Data set [6] relates to guinea-pig trachea. Nature of the data set: tissue or blood. The conditions noted are these: Cavia porcellus, read-out: IC50 of relaxation of tracheal rings.
Experimental: as §4

Text for rabbit sphincter of Oddi: The preparation of rabbit sphincters of Oddi (SO) was similar to that described previously (Slivka et al. 1994) with minor modifications. Briefly, the rabbit abdomen was opened at the midline. The gall bladder, bile duct, gastric antrum and contiguous duodenum were isolated, removed en bloc, and transferred to ice cold Krebs' solution at pH 7.4. The duodenum was opened along the antimesenteric border as was the adjacent pylorus and gastric antrum. From the luminal surface, the ampulla of Vater was identified and the SO isolated on ice under an illuminated magnifier by sharp dissection.
The SO were mounted on pairs of the hooks and suspended in organ chambers containing the Krebs' solution at 37° C. Resting tension was adjusted to 1 g, and circular contractions were monitored by the FT03C force transducer and recorded on the model 7 Grass polygraphs. SO were allowed to equilibrate as described above. […] Some experiments were performed by using ACh to intensify SO contractility, and then the effects of VIP, VIPGC-NO, VIPGC and GSNO on SO contractility were tested. After each experimental observation was complete, the SO were washed at least three times with fresh Krebs' solution.

Take `NCCc1c[nH]c2ccc(O)cc12` [5HT, 5-hydroxytryptamine]: in [1] (10 μM), the “effect on contractions of the strips” value is on record as “significant increase in contractions”.
Take `CC(=O)OCC[N+](C)(C)C` [ACh, acetylcholine]: in the data set with rabbit sphincter of Oddi (10 μM, n=12), the “acceleration in phasic contractions” value is on record as 69±15% and the “elevations in tonic pressure” value is on record as 73±12%.
For `N[C@@H](CCC(=O)N[C@@H](CSN=O)C(=O)NCC(=O)O)C(=O)O` [GSNO, S-nitrosoglutathione], the “relaxation of aortic rings, cumulative additions” value in the data set with rabbit aortic rings was “also observed in the rings exposed to GSNO”. Further, the “effect on ACh-induced contractions” value in the data set with rabbit sphincter of Oddi was “gradually attenuated”. The inhibition – broadly, the change of the read-out against control, counted positive when it falls – at 100 µM in the data set on rabbit sphincter of Oddi (ACh 10 μM, read-out: inhibition of ACh-enhanced phasic contractions) was 89 ± 5%. For the same molecule, the inhibition at 100 µM in the data set with rabbit sphincter of Oddi (read-out: inhibition of basic contractility of sphincter of Oddi) came to 91 ± 9%. Besides, the “relative potency of inhibition of contraction amplitude” value in data set [1] is listed as “two least potent inhibitors”. Also, in [2], the “cGMP content of aortic rings” value is reported as “significant increase in cGMP concentration” and the “cAMP content of aortic rings” value is reported as “no significant increase in cAMP content”.
For the molecule `CC[C@H](C)[C@H](NC(=O)[C@H](CO)NC(=O)[C@H](CC(N)=O)NC(=O)[C@H](CC(C)C)NC(=O)[C@H](Cc1ccc(O)cc1)NC(=O)[C@H](CCCCN)NC(=O)[C@H](CCCCN)NC(=O)[C@@H](NC(=O)[C@H](C)NC(=O)[C@H](CCSC)NC(=O)[C@H](CCC(N)=O)NC(=O)[C@H](CCCCN)NC(=O)[C@H](CCCNC(=N)N)NC(=O)[C@H](CC(C)C)NC(=O)[C@H](CCCNC(=N)N)NC(=O)[C@@H](NC(=O)[C@H](Cc1ccc(O)cc1)NC(=O)[C@H](CC(N)=O)NC(=O)[C@H](CC(=O)O)NC(=O)[C@@H](NC(=O)[C@H](Cc1ccccc1)NC(=O)[C@@H](NC(=O)[C@H](C)NC(=O)[C@H](CC(=O)O)NC(=O)[C@H](CO)NC(=O)[C@@H](N)Cc1c[nH]cn1)C(C)C)[C@@H](C)O)[C@@H](C)O)C(C)C)C(=O)N[C@@H](CC(C)C)C(=O)N[C@@H](CC(N)=O)C(N)=O` [VIP, vasoactive intestinal peptide], the “relaxation of aortic rings, cumulative additions” value with rabbit aortic rings was “certain degree of relaxation only at 1 μM”. For the same molecule, the “relaxation of phenylephrine-precontracted aortic rings” value with rabbit aortic rings (single doses (1 μM), FIG. 3) is 19±4%. In the data set on rabbit sphincter of Oddi, the persistence of effect result was “at least 90 minutes”, the “time to observed effect after addition to organ chambers” value was at most 2 min and the “effect on ACh-induced contractions” value was “gradually attenuated”. Also, the “inhibition of contraction frequency” value in the data set on rabbit sphincter of Oddi (1 μM) is listed as 94±16%. In addition, the “inhibition of ACh-enhanced phasic contractions” value in the data set with rabbit sphincter of Oddi (1 μM, ACh 10 μM) amounted to 93±7%. Besides, in the data set on rabbit sphincter of Oddi (cumulative addition 1 nM-1 μM, FIG. 5, 6), the “inhibition of basic contraction frequency and amplitude” value is “inhibited both basic contraction frequency and amplitude dose-dependently”. In addition, the “irregular and incomplete contractions noted during incubation” value with rabbit sphincter of Oddi (single dose 0.1 μM, 30 minutes, n=5, FIG. 7) was determined as 40±11. For the same molecule, in data set [2], the “cGMP content of aortic rings” value was “less than that of VIPGC-NO or GSNO” and the “cAMP content of aortic rings” value is “no significant increase in cAMP content”. Besides, in [3], the “cGMP content of tracheal rings” value is recorded as “significant increase in the content of cGMP” and the “cAMP content of tracheal rings” value is reported as “no concomitant increases in the cAMP level”. Moreover, the erectile response result with corpora cavernosa (10^-5 M, FIG. 16) was “partial and short erectile response”. Moreover, the erectile response entry in the data set on corpora cavernosa (intracavernosal 10^-5 M, FIG. 13) is “capable of inducing sustained penile erection”. In the data set with guinea-pig trachea [4], the “time for relaxation to reach a plateau” value is “about 20 minutes” and the “effect of pretreatment with 100 nM propanol on the induced relaxation” value is “did not antagonize”.
Regarding `CC[C@H](C)[C@H](NC(=O)[C@H](CO)NC(=O)[C@H](CC(N)=O)NC(=O)[C@H](CC(C)C)NC(=O)[C@H](Cc1ccc(O)cc1)NC(=O)[C@H](CCCCN)NC(=O)[C@H](CCCCN)NC(=O)[C@@H](NC(=O)[C@H](C)NC(=O)[C@H](CCSC)NC(=O)[C@H](CCC(N)=O)NC(=O)[C@H](CCCCN)NC(=O)[C@H](CCCNC(=N)N)NC(=O)[C@H](CC(C)C)NC(=O)[C@H](CCCNC(=N)N)NC(=O)[C@@H](NC(=O)[C@H](Cc1ccc(O)cc1)NC(=O)[C@H](CC(N)=O)NC(=O)[C@H](CC(=O)O)NC(=O)[C@@H](NC(=O)[C@H](Cc1ccccc1)NC(=O)[C@@H](NC(=O)[C@H](C)NC(=O)[C@H](CC(=O)O)NC(=O)[C@H](CO)NC(=O)[C@@H](N)Cc1c[nH]cn1)C(C)C)[C@@H](C)O)[C@@H](C)O)C(C)C)C(=O)N[C@@H](CC(C)C)C(=O)N[C@@H](CC(N)=O)C(=O)NCC(=O)N[C@@H](CS)C(N)=O` [VIPGC, VIP-Gly-Cys-NH2], in data set [5], the “diastolic blood pressure (DBP)” value is listed as 120 mm Hg. Besides, in the data set with guinea-pig trachea [4], the IC50 (in general, the concentration that gives 50% inhibition) came to 59 ± 9 nM.
For `CC[C@H](C)[C@H](NC(=O)[C@H](CO)NC(=O)[C@H](CC(N)=O)NC(=O)[C@H](CC(C)C)NC(=O)[C@H](Cc1ccc(O)cc1)NC(=O)[C@H](CCCCN)NC(=O)[C@H](CCCCN)NC(=O)[C@@H](NC(=O)[C@H](C)NC(=O)[C@H](CCSC)NC(=O)[C@H](CCC(N)=O)NC(=O)[C@H](CCCCN)NC(=O)[C@H](CCCNC(=N)N)NC(=O)[C@H](CC(C)C)NC(=O)[C@H](CCCNC(=N)N)NC(=O)[C@@H](NC(=O)[C@H](Cc1ccc(O)cc1)NC(=O)[C@H](CC(N)=O)NC(=O)[C@H](CC(=O)O)NC(=O)[C@@H](NC(=O)[C@H](Cc1ccccc1)NC(=O)[C@@H](NC(=O)[C@H](C)NC(=O)[C@H](CC(=O)O)NC(=O)[C@H](CO)NC(=O)[C@@H](N)Cc1c[nH]cn1)C(C)C)[C@@H](C)O)[C@@H](C)O)C(C)C)C(=O)N[C@@H](CC(C)C)C(=O)N[C@@H](CC(N)=O)C(=O)NCC(=O)N[C@@H](CSN=O)C(N)=O` [VIPGC-NO, VIP-Gly-Cys-NO], the “diastolic blood pressure (DBP)” value in [5] was 120 mm Hg. For the same molecule, the half-maximal inhibitory concentration (IC50) with guinea-pig trachea [4] was found to be 32 ± 6 nM.
With `CC(C)NCC(O)c1ccc(O)c(O)c1` (stereo not shown) [isoproterenol], the “relative potency of inhibition of contraction amplitude” value in data set [1] is given as “two least potent inhibitors”. In addition, in [3], the “cGMP content of tracheal rings” value was “no appreciable changes in the cGMP content” and the “cAMP content of tracheal rings” value is “significant increase in the cAMP level”. In the data set with guinea-pig trachea [4], the “time for relaxation to reach a plateau” value is listed as “about 5 minutes” and the “effect of pretreatment with 100 nM propanol on the induced relaxation” value was “blocked”. In addition, the IC50 in the data set on guinea-pig trachea [6] is 47 ± 3 nM.
